Results reported in paper PMC12037410, “Pharmacological targeting of BMAL1 modulates circadian and immune pathways” (Nature Chemical Biology, 2025).

Biological target: BMAL1 (Homo sapiens, UniProt O00327)
Design: PASB domain (residues 338–449); Protein thermal shift (PTS) fragment screen on recombinant human BMAL1(PASB), shift of melting temperature
Conditions: dTmB; binder

BMAL1, sequence (O00327 338-449): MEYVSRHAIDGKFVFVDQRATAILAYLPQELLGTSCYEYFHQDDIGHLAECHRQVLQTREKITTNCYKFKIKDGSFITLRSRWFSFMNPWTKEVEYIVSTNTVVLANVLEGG

Compound	Bmal1(PASB) dTmB
O=C(O)c1cc(=O)c2ccccc2o1 [Prestw-Frag-2352, Compound 352]	-0.25 °C
Clc1ccc(CNc2ccccn2)cc1 [Prestw-Frag-2356, Compound 344]	-0.84 °C
O=C1c2ccccc2CN1c1ccccc1 [Prestw-Frag-2360, Compound 56]	-0.56 °C
NC(=O)C(c1ccccc1)c1ccccc1 [Prestw-Frag-2366, Compound 415]	-0.76 °C
S=c1[nH]cc[nH]1 [Prestw-Frag-2373, Compound 253]	-1.25 °C
O=C(O)CCC(=O)Nc1ccccc1 [Prestw-Frag-2383, Compound 124]	-0.33 °C
O=C(C1COc2ccccc2O1)N1CCNCC1 (centres unmarked) [Prestw-Frag-2389, Compound 381]	-0.24 °C
N#Cc1ccc[nH]c1=O [Prestw-Frag-2408, Compound 346]	-0.07 °C
Cn1ccccc1=O [Prestw-Frag-2410, Compound 227]	-0.12 °C
COC(=O)C(O)c1ccccc1 (centres unmarked) [Prestw-Frag-2423, Compound 176]	0.02 °C
CCN(CCCCO)C(C)Cc1ccc(OC)cc1 (centres unmarked) [Prestw-Frag-2440, Compound 249]	-0.23 °C
Nc1ccccn1 [Prestw-Frag-2443, Compound 228]	0.09 °C
COCCOC(=O)c1ccc(N)cc1 [Prestw-Frag-2453, Compound 317]	-0.58 °C
O=C1CCc2ccccc2N1 [Prestw-Frag-2464, Compound 16]	-2.13 °C
Nc1ccccc1S(N)(=O)=O [Prestw-Frag-2473, Compound 242]	0.04 °C
CCOc1ccccn1 [Prestw-Frag-2477, Compound 94]	-0.05 °C
COC(=O)C(O)(c1ccccc1)C1CCCC1 (centres unmarked) [Prestw-Frag-2484, Compound 442]	-1.34 °C
CC(=O)N(CCC(=O)O)c1ccccc1 [Prestw-Frag-2487, Compound 222]	0.04 °C
c1ccc2cnccc2c1 [Prestw-Frag-2493, Compound 131]	-0.12 °C
COc1ccc(O)cc1O [Prestw-Frag-2499, Compound 11]	0.28 °C
c1cnccn1 [Prestw-Frag-2501, Compound 209]	0.00 °C
CC(=O)c1ccc(O)cc1O [Prestw-Frag-2506, Compound 162]	0.21 °C

Compound	Bmal1(PASB) dTmB
OCc1ccc(O)cc1 [Prestw-Frag-2532, Compound 453]	-0.16 °C
c1ccc(C2CCNCC2)cc1 [Prestw-Frag-2537, Compound 310]	-0.53 °C
S=c1[nH]c2ccccc2[nH]1 [Prestw-Frag-2539, Compound 1]	6.28 °C
O=C(O)c1cccnc1 [Prestw-Frag-2541, Compound 64]	-0.10 °C
O=c1[nH]snc1N1CCOCC1 [Prestw-Frag-2562, Compound 37]	-0.14 °C
ClC1(Cl)CC1c1ccccc1 (centres unmarked) [Prestw-Frag-2566, Compound 328]	0.06 °C
O=C(O)CNC(=O)c1ccccc1 [Prestw-Frag-2576, Compound 196]	0.18 °C
O=C(O)COc1ccccc1 [Prestw-Frag-2577, Compound 147]	0.25 °C
NC(=O)COc1ccccc1 [Prestw-Frag-2578, Compound 235]	-0.19 °C
O=C(O)Cc1ccccc1 [Prestw-Frag-2579, Compound 132]	-0.05 °C
NC(=O)Cc1ccccc1 [Prestw-Frag-2580, Compound 73]	-0.74 °C
NC(=O)c1ccncc1 [Prestw-Frag-2587, Compound 181]	0.25 °C
Oc1cccc2cccnc12 [Prestw-Frag-2592, Compound 119]	-0.26 °C
Clc1cccc2ncccc12 [Prestw-Frag-2593, Compound 66]	-0.75 °C
OC1c2ccccc2CCc2ccccc21 [Prestw-Frag-2600, Compound 464]	-1.43 °C
c1ccc(CCn2ccnc2)cc1 [Prestw-Frag-2608, Compound 366]	-0.49 °C
c1ccc(Cn2ccnc2)cc1 [Prestw-Frag-2620, Compound 329]	-0.49 °C
c1ccc(C(c2ccccc2)n2cncn2)cc1 [Prestw-Frag-2645, Compound 443]	-2.46 °C
N#CC1(c2ccc(F)cc2)CCCCC1 [Prestw-Frag-2647, Compound 433]	-0.64 °C
CC1(c2ccccc2)NC(=O)NC1=O (centres unmarked) [Prestw-Frag-2652, Compound 273]	-0.17 °C
Cc1ccc(C#N)c(=O)[nH]1 [Prestw-Frag-2669, Compound 177]	-0.34 °C
O=C1CCCc2[nH]ccc21 [Prestw-Frag-2675, Compound 219]	0.11 °C
